According to ChEMBL document CHEMBL3400036, “Novel 4-substituted-N,N-dimethyltetrahydronaphthalen-2-amines: synthesis, affinity, and in silico docking studies at serotonin 5-HT2-type and histamine H1 G protein-coupled receptors” (Bioorg Med Chem, 2015):

Legend:
Type in all cases: cell-based
[1] = target: 5-hydroxytryptamine receptor 2A (Homo sapiens, UniProt P28223); test: Displacement of [3H]Ketanserin from human 5-HT2A receptor expressed in HEK293 cells by scintillation counting analysis
[2] = target: 5-hydroxytryptamine receptor 2B (Homo sapiens, UniProt P41595); test: Displacement of [3H]Mesulergine from human 5-HT2B receptor expressed in HEK293 cells by scintillation counting analysis
5-hydroxytryptamine receptor 2B, sequence (P41595 whole entry): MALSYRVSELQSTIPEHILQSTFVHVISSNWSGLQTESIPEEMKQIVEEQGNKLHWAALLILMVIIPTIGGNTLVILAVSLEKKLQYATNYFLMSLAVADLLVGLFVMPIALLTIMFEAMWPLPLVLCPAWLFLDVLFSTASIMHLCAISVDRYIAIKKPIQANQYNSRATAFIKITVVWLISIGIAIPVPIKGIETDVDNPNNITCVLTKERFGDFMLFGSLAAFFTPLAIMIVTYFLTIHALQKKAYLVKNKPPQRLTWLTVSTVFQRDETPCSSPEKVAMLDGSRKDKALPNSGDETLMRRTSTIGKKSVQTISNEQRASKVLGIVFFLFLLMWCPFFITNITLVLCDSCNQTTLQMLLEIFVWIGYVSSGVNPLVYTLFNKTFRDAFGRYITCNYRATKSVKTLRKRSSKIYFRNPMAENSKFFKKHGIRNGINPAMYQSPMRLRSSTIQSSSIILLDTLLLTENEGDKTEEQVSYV

[3] = target: T1, 5-hydroxytryptamine receptor 2C (Homo sapiens, UniProt P28335); test: Displacement of [3H]Mesulergine from human 5-HT2C-INI receptor expressed in HEK293 cells by scintillation counting analysis
T1 sequence (P28335 whole entry): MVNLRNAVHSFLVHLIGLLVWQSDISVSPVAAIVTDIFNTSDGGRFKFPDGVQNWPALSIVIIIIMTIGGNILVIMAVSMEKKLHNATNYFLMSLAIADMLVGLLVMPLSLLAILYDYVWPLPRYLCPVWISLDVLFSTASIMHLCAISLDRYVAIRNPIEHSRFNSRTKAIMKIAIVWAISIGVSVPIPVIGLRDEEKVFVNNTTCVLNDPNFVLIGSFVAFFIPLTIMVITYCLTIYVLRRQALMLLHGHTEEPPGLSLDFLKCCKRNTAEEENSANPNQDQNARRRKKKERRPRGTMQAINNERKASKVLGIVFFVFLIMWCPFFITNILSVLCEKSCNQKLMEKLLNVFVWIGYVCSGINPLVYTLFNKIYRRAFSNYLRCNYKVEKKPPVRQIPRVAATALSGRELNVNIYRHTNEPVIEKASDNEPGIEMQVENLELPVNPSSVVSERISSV

5-hydroxytryptamine receptor 2A, sequence (P28223 whole entry): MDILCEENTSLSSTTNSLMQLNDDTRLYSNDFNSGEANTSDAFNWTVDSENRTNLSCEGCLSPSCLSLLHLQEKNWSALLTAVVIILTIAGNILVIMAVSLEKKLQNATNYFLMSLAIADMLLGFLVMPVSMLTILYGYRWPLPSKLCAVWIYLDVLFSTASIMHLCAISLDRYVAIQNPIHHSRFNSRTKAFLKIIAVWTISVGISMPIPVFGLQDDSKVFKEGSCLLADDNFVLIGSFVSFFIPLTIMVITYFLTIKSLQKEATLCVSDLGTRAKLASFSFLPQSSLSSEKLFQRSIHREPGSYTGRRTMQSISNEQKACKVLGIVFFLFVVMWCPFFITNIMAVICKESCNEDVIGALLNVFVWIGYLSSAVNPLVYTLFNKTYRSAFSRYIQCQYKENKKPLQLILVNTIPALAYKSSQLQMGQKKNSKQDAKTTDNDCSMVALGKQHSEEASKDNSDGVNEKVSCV

| Compound | Ki [1] [nM] | Ki [2] [nM] | Ki [3] [nM] |
| --- | --- | --- | --- |
| CN(C)[C@@H]1Cc2ccccc2[C@@H](c2ccccc2)C1 | 100 | 94 |  |
| CN(C)[C@H]1Cc2ccccc2[C@H](C2CCCCCCC2)C1 |  | 40 |  |
| CN(C)[C@@H]1Cc2ccccc2[C@@H](C2CCCCC2)C1 | 20 | 20 | 7 |
| CN(C)[C@H]1Cc2ccccc2[C@H](C2CCCCC2)C1 | 80 | 170 | 30 |
| CN(C)[C@@H]1Cc2ccccc2[C@@H](c2ccccc2Br)C1 | 1100 | 650 | 70 |
| CN(C)[C@H]1Cc2ccccc2[C@H](c2ccccc2Br)C1 | 760 | 4100 | 78 |
| CN(C)[C@H]1Cc2ccccc2[C@H](c2ccc(C(F)(F)F)cc2)C1 |  | 250 |  |
| CN(C)[C@@H]1Cc2ccccc2[C@@H](c2ccc(Br)cc2)C1 | 220 | 210 | 100 |
| CN(C)[C@H]1Cc2ccccc2[C@H](c2ccc(Br)cc2)C1 | 60 | 30 | 70 |
| CN(C)[C@@H]1Cc2ccccc2[C@@H](c2ccc(Cl)cc2)C1 | 250 | 300 | 120 |
| CN(C)[C@H]1Cc2ccccc2[C@H](c2ccc(Cl)cc2)C1 | 50 | 80 | 55 |
| CN(C)[C@@H]1Cc2ccccc2[C@@H](c2ccc(F)cc2)C1 | 140 | 400 | 68 |
| CN(C)[C@H]1Cc2ccccc2[C@H](c2ccc(F)cc2)C1 | 71 | 66 | 75 |
| CN(C)[C@@H]1Cc2ccccc2[C@@H](c2cccc([N+](=O)[O-])c2)C1 | 74 | 70 | 10 |
| CN(C)[C@H]1Cc2ccccc2[C@H](c2cccc([N+](=O)[O-])c2)C1 | 500 | 20 | 120 |
| CN(C)[C@@H]1Cc2ccccc2[C@@H](c2cccc(C(F)(F)F)c2)C1 | 80 | 60 | 10 |

| Compound | Ki [1] [nM] | Ki [2] [nM] | Ki [3] [nM] |
| --- | --- | --- | --- |
| CN(C)[C@H]1Cc2ccccc2[C@H](c2cccc(C(F)(F)F)c2)C1 | 1300 | 200 | 230 |
| CN(C)[C@@H]1Cc2ccccc2[C@@H](c2cccc(Br)c2)C1 | 20 | 8 | 4 |
| CN(C)[C@H]1Cc2ccccc2[C@H](c2cccc(Br)c2)C1 | 260 | 40 | 200 |
| CN(C)[C@@H]1Cc2ccccc2[C@@H](c2cccc(Cl)c2)C1 | […] | 30 | […] |
| CN(C)[C@H]1Cc2ccccc2[C@H](c2cccc(Cl)c2)C1 | […] | 50 | […] |
| CN(C)[C@@H]1Cc2ccccc2[C@@H](c2cccc(F)c2)C1 |  | 70 | 43 |
| CN(C)[C@H]1Cc2ccccc2[C@H](c2cccc(F)c2)C1 |  | 110 | 200 |
| CN(C)[C@H]1Cc2ccccc2[C@H](c2ccccc2)C1 | 470 | 240 |  |
| CN(C)[C@@H]1Cc2ccccc2[C@@H](C2CCCCCCC2)C1 |  | 10 |  |
| CN(C)[C@H]1Cc2ccccc2[C@H](c2cccc(-c3ccccc3)c2)C1 |  | 200 | 1000 |
| CN(C)[C@@H]1Cc2ccccc2[C@@H](c2cccc(-c3ccccc3)c2)C1 |  | 73 | 5 |
| CN(C)[C@H]1Cc2ccccc2[C@H](c2ccccc2Cl)C1 | 2800 | 710 | 50 |
| CN(C)[C@@H]1Cc2ccccc2[C@@H](c2ccccc2Cl)C1 | 2400 | 300 | 290 |
| Cc1ccccc1[C@@H]1C[C@@H](N(C)C)Cc2ccccc21 | 700 | 6000 | 2000 |
| Cc1ccccc1[C@H]1C[C@H](N(C)C)Cc2ccccc21 | 1000 | 800 | 1600 |
